Reference: patent US12365696B2, “Small-molecule focal adhesion kinase (FAK) inhibitors” (DANA-FARBER CANCER INSTITUTE, INC., priority 2019, dated 2025)

What was measured:
[1] = tested on: MDA-MB-231 cells; assay: 2D-adherent monolayer cell viability (Cell Titer-Glo), 120 hrs; assay type: cell-based; settings: Homo sapiens
Description: For 2D-adherent monolayer experiments, MDA-MB-231 cells were plated in 384-well format and allowed to adhere overnight. Cells were treated with indicated molecules from compound stock plates using a JANUS® Workstation pin tool for 120 hrs. To measure cell viability, Cell Titer-Glo® was added to wells for 15 minutes at room temperature and luminescence was measured on an EnVision™ 2104 Multilabel Plate Reader.
Inventive compound treatment (0.00063-20 μM) led to antiproliferative effects in MDA-MB-231 cells cultured as 2D-adherent monolayers or as ultra-low adherent 3D-spheroid suspensions (Table 5).

[2] = target: KIT(D816V) (Homo sapiens (Human), UniProt P10721, D816V); assay: KINOMEscan; assay type: binding; settings: 10000 nM, read-out: Percent Control
[3] = target: PIK3CA (Homo sapiens (Human), UniProt P42336); assay: KINOMEscan; assay type: binding; settings: 10000 nM, read-out: Percent Control
[4] = target: OSR1 (Homo sapiens (Human), UniProt O95747); assay: KINOMEscan; assay type: binding; settings: OSR1, 10000 nM; read-out: Percent Control
[5] = target: STK35 (Homo sapiens (Human), UniProt Q8TDR2); assay: KINOMEscan; assay type: binding; settings: STK35, 10000 nM; read-out: Percent Control
[6] = target: PRP4 (Homo sapiens (Human), UniProt Q13523); assay: KINOMEscan; assay type: binding; settings: PRP4, 10000 nM; read-out: Percent Control
Description: (§1) Selectivity profiling of compound 3 among a panel of kinases was performed with KINOMEscan® as set forth below. The KINOMEscan® screening platform employs an active site-directed competition binding assay to quantitatively measure interactions between a test compound, e.g., compound 3, and more than 450 kinases and disease-relevant mutant variants.
(§2) Screening of compound 3 was conducted at a concentration of 10 μM by Eurofins DiscoverX. Activity is measured as the ability of compound 3 to displace the kinase from a solid support relative to a negative control (i.e., DMSO). The output is % control.

[7] = target: CDC2L5 (Homo sapiens (Human), UniProt Q14004); assay: KINOMEscan; assay type: binding; settings: CDC2L5, 10000 nM; read-out: Percent Control
Description: as §1, §2

[8] = target: LRRK2(G2019S) (Homo sapiens (Human), UniProt Q5S007, G2019S); assay: KINOMEscan; assay type: binding; settings: 10000 nM, read-out: Percent Control
[9] = target: YANK3 (Homo sapiens (Human), UniProt Q86UX6); assay: KINOMEscan; assay type: binding; settings: YANK3, 10000 nM; read-out: Percent Control
[10] = target: EPHB2 (Homo sapiens (Human), UniProt P29323); assay: KINOMEscan; assay type: binding; settings: EPHB2, 10000 nM; read-out: Percent Control
[11] = target: PRKCH (Homo sapiens (Human), UniProt P24723); assay: KINOMEscan; assay type: binding; settings: 10000 nM, read-out: Percent Control
[12] = target: PIK3CG (Homo sapiens (Human), UniProt P48736); assay: KINOMEscan; assay type: binding; settings: 10000 nM, read-out: Percent Control
[13] = target: SBK1 (Homo sapiens (Human), UniProt Q52WX2); assay: KINOMEscan; assay type: binding; settings: SBK1, 10000 nM; read-out: Percent Control
[14] = target: MAST1 (Homo sapiens (Human), UniProt Q9Y2H9); assay: KINOMEscan; assay type: binding; settings: MAST1, 10000 nM; read-out: Percent Control
[15] = target: ERK2 (Homo sapiens (Human), UniProt P28482); assay: KINOMEscan; assay type: binding; settings: ERK2, 10000 nM; read-out: Percent Control
[16] = target: CSNK2A2 (Homo sapiens (Human), UniProt P19784); assay: KINOMEscan; assay type: binding; settings: CSNK2A2, 10000 nM; read-out: Percent Control
[17] = target: EPHA7 (Homo sapiens (Human), UniProt Q15375); assay: KINOMEscan; assay type: binding; settings: EPHA7, 10000 nM; read-out: Percent Control
[18] = target: PIK4CB (Homo sapiens (Human), UniProt Q9UBF8); assay: KINOMEscan; assay type: binding; settings: 10000 nM, read-out: Percent Control
[19] = target: ARK5 (Homo sapiens (Human), UniProt O60285); assay: KINOMEscan; assay type: binding; settings: ARK5, 10000 nM; read-out: Percent Control
[20] = target: PRKG1 (Homo sapiens (Human), UniProt Q13976); assay: KINOMEscan; assay type: binding; settings: PRKG1, 10000 nM; read-out: Percent Control
[21] = target: RSK1(Kin.Dom.2-C-terminal) (Homo sapiens (Human), UniProt Q15418); assay: KINOMEscan; assay type: binding; settings: 10000 nM, read-out: Percent Control
[22] = target: RSK2(Kin.Dom.2-C-terminal) (Homo sapiens (Human), UniProt P51812); assay: KINOMEscan; assay type: binding; settings: 10000 nM, read-out: Percent Control
[23] = target: TGFBR1 (Homo sapiens (Human), UniProt P36897); assay: KINOMEscan; assay type: binding; settings: TGFBR1, 10000 nM; read-out: Percent Control
[24] = target: ADCK3 (Homo sapiens (Human), UniProt Q8NI60); assay: KINOMEscan; assay type: binding; settings: ADCK3, 10000 nM; read-out: Percent Control
[25] = target: RSK3(Kin.Dom.2-C-terminal) (Homo sapiens (Human), UniProt Q15349); assay: KINOMEscan; assay type: binding; settings: 10000 nM, read-out: Percent Control
[26] = target: AURKB (Homo sapiens (Human), UniProt Q96GD4); assay: KINOMEscan; assay type: binding; settings: 10000 nM, read-out: Percent Control
[27] = target: TNK2 (Homo sapiens (Human), UniProt Q07912); assay: KINOMEscan; assay type: binding; settings: TNK2, 10000 nM; read-out: Percent Control
[28] = target: IKK-alpha (Homo sapiens (Human), UniProt O15111); assay: KINOMEscan; assay type: binding; settings: 10000 nM, read-out: Percent Control
[29] = target: CAMK1G (Homo sapiens (Human), UniProt Q96NX5); assay: KINOMEscan; assay type: binding; settings: 10000 nM, read-out: Percent Control

Chain of RSK3(Kin.Dom.2-C-terminal) (Q15349 415-672): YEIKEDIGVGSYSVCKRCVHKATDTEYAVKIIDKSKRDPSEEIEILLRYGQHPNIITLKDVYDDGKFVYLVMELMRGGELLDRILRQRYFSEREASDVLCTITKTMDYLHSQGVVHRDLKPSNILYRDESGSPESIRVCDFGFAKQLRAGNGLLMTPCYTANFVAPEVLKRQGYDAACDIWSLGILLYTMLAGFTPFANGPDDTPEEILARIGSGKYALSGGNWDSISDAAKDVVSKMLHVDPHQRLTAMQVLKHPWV
Chain of PIK4CB (Q9UBF8 whole entry): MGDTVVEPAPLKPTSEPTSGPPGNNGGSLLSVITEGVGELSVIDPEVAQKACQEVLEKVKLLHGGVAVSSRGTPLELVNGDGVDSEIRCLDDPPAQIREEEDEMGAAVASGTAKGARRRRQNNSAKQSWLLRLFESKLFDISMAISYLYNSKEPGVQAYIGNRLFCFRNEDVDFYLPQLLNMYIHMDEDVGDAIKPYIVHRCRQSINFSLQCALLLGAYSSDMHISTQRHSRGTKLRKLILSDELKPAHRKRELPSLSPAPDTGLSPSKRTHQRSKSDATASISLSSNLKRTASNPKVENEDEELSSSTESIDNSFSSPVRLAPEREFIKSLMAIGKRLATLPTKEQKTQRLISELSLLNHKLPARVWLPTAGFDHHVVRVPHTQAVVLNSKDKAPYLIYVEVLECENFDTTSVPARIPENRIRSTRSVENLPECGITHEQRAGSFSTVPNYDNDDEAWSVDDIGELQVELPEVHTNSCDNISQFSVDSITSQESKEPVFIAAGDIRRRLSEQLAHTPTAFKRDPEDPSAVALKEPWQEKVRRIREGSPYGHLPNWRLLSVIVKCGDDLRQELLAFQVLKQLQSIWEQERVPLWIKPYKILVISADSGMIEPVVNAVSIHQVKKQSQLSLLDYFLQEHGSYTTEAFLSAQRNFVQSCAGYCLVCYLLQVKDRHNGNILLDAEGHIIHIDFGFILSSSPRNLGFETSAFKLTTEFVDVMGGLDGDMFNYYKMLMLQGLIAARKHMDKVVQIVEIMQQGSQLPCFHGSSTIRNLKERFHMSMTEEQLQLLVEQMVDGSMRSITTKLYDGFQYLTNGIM
Chain of PRP4 (Q13523 whole entry, looked up): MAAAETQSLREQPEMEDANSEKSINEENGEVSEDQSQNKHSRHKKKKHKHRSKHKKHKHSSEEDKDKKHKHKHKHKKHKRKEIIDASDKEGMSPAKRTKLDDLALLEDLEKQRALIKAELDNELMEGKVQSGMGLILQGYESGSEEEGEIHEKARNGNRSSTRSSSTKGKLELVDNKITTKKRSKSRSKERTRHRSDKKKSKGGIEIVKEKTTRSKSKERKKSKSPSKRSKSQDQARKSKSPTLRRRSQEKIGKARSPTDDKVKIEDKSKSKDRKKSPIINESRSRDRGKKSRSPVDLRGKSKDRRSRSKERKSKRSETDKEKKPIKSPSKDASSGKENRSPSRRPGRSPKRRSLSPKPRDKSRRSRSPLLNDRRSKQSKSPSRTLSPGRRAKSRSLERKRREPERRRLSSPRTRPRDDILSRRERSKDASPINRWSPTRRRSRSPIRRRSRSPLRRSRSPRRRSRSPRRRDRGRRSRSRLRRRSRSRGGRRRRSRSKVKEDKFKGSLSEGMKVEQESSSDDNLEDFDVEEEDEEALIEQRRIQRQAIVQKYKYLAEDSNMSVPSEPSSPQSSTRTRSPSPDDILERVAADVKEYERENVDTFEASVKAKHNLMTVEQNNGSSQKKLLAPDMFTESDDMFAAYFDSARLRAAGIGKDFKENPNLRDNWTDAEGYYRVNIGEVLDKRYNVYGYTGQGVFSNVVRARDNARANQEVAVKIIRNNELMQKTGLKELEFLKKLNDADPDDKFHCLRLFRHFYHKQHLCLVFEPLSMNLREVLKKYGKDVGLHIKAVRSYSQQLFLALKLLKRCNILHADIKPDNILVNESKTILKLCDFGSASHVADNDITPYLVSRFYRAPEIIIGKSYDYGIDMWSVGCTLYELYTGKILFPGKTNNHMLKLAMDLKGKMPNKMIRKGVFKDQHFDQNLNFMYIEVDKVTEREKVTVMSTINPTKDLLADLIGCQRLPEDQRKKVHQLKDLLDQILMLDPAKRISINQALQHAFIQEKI
Chain of MAST1 (Q9Y2H9 whole entry): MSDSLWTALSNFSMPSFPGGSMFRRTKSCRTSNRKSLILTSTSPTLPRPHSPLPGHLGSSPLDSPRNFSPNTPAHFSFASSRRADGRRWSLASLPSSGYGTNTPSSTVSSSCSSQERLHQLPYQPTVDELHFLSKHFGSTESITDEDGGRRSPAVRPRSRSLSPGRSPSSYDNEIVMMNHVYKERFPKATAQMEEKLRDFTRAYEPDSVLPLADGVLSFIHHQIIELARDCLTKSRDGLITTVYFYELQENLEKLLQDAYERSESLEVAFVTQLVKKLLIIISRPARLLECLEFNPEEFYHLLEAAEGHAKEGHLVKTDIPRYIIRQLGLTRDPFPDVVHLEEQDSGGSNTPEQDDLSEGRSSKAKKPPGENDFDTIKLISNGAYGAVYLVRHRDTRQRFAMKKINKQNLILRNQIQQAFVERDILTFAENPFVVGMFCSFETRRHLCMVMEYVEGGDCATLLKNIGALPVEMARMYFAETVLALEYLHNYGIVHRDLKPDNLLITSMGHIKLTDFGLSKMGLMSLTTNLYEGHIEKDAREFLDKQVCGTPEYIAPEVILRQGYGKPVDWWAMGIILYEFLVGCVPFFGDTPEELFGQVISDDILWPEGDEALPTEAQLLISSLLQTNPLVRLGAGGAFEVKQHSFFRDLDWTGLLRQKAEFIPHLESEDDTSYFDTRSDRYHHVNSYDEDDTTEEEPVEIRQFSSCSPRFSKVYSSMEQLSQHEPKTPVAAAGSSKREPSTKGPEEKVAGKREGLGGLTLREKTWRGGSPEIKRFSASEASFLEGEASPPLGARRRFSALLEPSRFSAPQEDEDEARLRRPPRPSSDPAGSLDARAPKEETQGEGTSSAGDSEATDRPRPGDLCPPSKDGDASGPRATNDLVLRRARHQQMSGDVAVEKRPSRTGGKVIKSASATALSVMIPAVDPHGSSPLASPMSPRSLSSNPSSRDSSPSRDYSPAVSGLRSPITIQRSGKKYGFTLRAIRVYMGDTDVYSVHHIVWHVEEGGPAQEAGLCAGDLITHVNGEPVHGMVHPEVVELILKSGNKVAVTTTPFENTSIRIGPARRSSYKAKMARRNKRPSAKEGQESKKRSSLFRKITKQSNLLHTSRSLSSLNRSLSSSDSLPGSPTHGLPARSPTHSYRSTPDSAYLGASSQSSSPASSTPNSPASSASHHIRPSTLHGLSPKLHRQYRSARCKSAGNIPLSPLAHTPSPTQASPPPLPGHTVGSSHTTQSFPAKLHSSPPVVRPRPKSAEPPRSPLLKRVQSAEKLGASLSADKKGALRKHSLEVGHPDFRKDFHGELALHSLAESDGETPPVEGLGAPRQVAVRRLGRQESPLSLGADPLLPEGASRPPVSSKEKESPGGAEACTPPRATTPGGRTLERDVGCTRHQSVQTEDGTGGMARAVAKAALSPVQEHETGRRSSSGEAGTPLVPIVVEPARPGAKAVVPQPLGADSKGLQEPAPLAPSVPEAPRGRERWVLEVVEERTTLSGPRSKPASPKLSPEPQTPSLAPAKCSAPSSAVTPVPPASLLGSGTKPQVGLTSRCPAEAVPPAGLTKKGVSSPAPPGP
Chain of EPHB2 (P29323 19-1055): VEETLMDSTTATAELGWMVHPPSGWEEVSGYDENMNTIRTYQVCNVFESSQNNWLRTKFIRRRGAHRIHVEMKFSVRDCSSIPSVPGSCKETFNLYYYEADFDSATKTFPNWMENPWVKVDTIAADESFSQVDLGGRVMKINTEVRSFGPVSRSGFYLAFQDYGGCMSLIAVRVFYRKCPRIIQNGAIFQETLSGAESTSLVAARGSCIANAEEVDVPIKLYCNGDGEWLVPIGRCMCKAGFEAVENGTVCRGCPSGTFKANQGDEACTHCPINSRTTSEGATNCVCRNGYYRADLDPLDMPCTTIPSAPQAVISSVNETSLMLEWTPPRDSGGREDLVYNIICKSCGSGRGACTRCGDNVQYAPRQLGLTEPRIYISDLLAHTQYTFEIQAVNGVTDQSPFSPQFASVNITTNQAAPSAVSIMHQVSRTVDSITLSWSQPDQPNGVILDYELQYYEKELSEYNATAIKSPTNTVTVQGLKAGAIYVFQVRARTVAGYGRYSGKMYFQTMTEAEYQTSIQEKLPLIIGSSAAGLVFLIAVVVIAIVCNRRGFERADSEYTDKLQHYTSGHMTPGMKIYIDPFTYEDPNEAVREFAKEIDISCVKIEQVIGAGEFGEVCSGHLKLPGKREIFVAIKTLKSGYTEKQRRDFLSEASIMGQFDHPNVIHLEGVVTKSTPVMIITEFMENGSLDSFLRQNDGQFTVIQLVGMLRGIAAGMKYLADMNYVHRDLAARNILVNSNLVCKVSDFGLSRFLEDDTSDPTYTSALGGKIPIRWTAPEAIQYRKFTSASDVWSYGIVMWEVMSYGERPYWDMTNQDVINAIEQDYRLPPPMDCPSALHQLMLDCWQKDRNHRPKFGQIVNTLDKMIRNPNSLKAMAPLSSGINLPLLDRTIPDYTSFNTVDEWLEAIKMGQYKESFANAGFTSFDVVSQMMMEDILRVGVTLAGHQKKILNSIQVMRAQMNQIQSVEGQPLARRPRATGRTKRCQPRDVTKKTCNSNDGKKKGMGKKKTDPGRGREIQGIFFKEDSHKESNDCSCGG
Chain of CSNK2A2 (P19784 whole entry): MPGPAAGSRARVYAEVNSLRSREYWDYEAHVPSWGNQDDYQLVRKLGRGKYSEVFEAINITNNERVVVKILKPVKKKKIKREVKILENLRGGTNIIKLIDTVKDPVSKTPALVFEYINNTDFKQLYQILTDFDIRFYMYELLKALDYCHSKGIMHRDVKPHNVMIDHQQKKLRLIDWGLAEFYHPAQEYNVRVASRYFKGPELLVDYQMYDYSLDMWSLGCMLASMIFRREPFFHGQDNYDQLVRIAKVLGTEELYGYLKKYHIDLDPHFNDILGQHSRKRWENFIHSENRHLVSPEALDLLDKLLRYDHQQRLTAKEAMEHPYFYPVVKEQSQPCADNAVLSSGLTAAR

| Structure (SMILES) | IC50 [1] [µM] | remaining binding at 10 µM [2] [%] | remaining binding at 10 µM [3] [%] | remaining binding at 10 µM [4] [%] | remaining binding at 10 µM [5] [%] | remaining binding at 10 µM [6] [%] | remaining binding at 10 µM [7] [%] | remaining binding at 10 µM [8] [%] | remaining binding at 10 µM [9] [%] | remaining binding at 10 µM [10] [%] | remaining binding at 10 µM [11] [%] | remaining binding at 10 µM [12] [%] | remaining binding at 10 µM [13] [%] | remaining binding at 10 µM [14] [%] | remaining binding at 10 µM [15] [%] | remaining binding at 10 µM [16] [%] | remaining binding at 10 µM [17] [%] | remaining binding at 10 µM [18] [%] | remaining binding at 10 µM [19] [%] | remaining binding at 10 µM [20] [%] | further results |
| --- | --- | --- | --- | --- | --- | --- | --- | --- | --- | --- | --- | --- | --- | --- | --- | --- | --- | --- | --- | --- | --- |
| COc1cc(N2CCC(N3CCN(C)CC3)CC2)ccc1Nc1ncc2c(n1)N(C)c1sc(C)nc1C(=O)N2 [Compound 3, 6-((2-methoxy-4-(4-(4-methylpiperazin-1-yl)piperidin-1-yl)phenyl)amino)-2,4-dimethyl-4,9-dihydro-10H-pyrimido[5,4-b]thiazolo[5,4-e][1,4]diazepin-10-one] | > 10 | 11 | 100 | 100 | 89 | 100 | 100 | 100 | 68 | 53 | 89 | 93 | 100 | 84 | 60 | 87 | 71 | 85 | 86 | 93 | remaining binding at 10 µM [21]: 81%; remaining binding at 10 µM [22]: 100%; remaining binding at 10 µM [23]: 88%; remaining binding at 10 µM [24]: 54%; remaining binding at 10 µM [25]: 84%; remaining binding at 10 µM [26]: 100%; remaining binding at 10 µM [27]: 20%; remaining binding at 10 µM [28]: 100%; remaining binding at 10 µM [29]: 74% |
| COc1cc(N2CCC(N3CCN(C)CC3)CC2)ccc1Nc1ncc2c(n1)N(C)c1sc(C)nc1C(=O)N2C [Compound 5, 6-((2-methoxy-4-(4-(4-methylpiperazin-1-yl)piperidin-1-yl)phenyl)amino)-2,4,9-trimethyl-4,9-dihydro-10H-pyrimido[5,4-b]thiazolo[5,4-e][1,4]diazepin-10-one] | 7.6 | 100 | 100 | 100 | 100 | 100 | 100 | 21 | 98 | 99 | 94 | 88 | 98 | 100 | 98 | 93 | 97 | 100 | 94 | 100 | remaining binding at 10 µM [21]: 55%; remaining binding at 10 µM [22]: 99%; remaining binding at 10 µM [23]: 100%; remaining binding at 10 µM [24]: 88%; remaining binding at 10 µM [25]: 31%; remaining binding at 10 µM [26]: 99%; remaining binding at 10 µM [27]: 87%; remaining binding at 10 µM [28]: 100%; remaining binding at 10 µM [29]: 95% |
